# Results taken from patent US12590108B2, “Boracic acid compound” (Phaeno Therapeutics Co., Ltd, priority 2020, dated 2026).
# How the values were obtained:
# [1] = test system: Klebsiella pneumoniae ATCC BAA-1705; experiment: Mouse lung infection model, bacterial load; assay type: in vivo, CD-1 female mice; conditions: endpoint 12 h
# Description: (§1) 36 CD-1 female mice were divided into 12 cages with 3 […] in each cage. The day of infection was denoted as day 0.
# (§2) Immunosuppressant cyclophosphamide at 150 mg/kg was injected intraperitoneally on day −4 and immunosuppressant cyclophosphamide at 100 mg/kg was injected intraperitoneally on day −1 to induce immunodeficient mice.
# On day −1, the strain Klebsiella pneumoniae ATCC BAA-1705 was resuscitated on an MHA plate. Resuscitated colonies were picked and dissolved in sterile physiological saline to prepare a bacterial solution with a concentration of 2.75E+08 CFU/mL for lung infection by nasal drip. The initial time of infection was denoted as 0 h, and 50 μL of the bacterial solution was injected into each mouse by nasal drip at 0 h, that is, the inoculation amount was 1.38E+07 CFU/mouse. 2 h after infection, dosing was performed according to the experimental scheme. The specific experimental scheme was as follows (see Table 6): • (1) 2 h after infection: for the 1st cage of mice, at the endpoint, lung tissue was taken and placed in 10 mL of sterile physiological saline, the tissue was homogenized by a homogenizer, and the homogenate was diluted in a gradient and spotted in a plate, with two replicates for each mouse. • (2) 2 h after infection: the 2nd to 12th cages were respectively treated at 10 mL/kg by volume according to the body weight of the mice, the 2nd cage of mice were given a vehicle by intravenous injection every 2 h, and the endpoint was 12 h; the 3rd cage of mice were given 100 mg/kg of meropenem by intravenous injection every 2 h, and the endpoint was 12 h; the 4th cage of mice were given 100 mg/kg of meropenem and 20 mg/kg of QPX7728 by intravenous injection every 2 h, and the endpoint was 12 h; the 5th cage of mice were given 100 mg/kg of meropenem and 100 mg/kg of compound 15 by intravenous injection every 2 h, and the endpoint was 12 h; the 6th cage of mice were given 100 mg/kg of meropenem and 20 mg/kg of compound 15 by intravenous injection every 2 h, and the endpoint was 12 h; the 7th cage of mice were given 100 mg/kg of meropenem and 4 mg/kg of compound 15 by intravenous injection every 2 h, and the endpoint was 12 h; the 8th cage of mice were given 100 mg/kg of cefepime by intravenous injection every 2 h, and the endpoint was 12 h; the 9th cage of mice were given 100 mg/kg of cefepime and 20 mg/kg of QPX7728 by intravenous injection every 2 h, and the endpoint was 12 h; the 10th cage of mice were given 100 mg/kg of cefepime and 100 mg/kg of compound 15 by intravenous injection every 2 h, and the endpoint was 12 h: the 11th cage of mice were given 100 mg/kg of cefepime and 20 mg/kg of compound 15 by intravenous injection every 2 h, and the endpoint was 12 h; and the 12th cage of mice were given 100 mg/kg of cefepime and 4 mg/kg of compound 15 by intravenous injection every 2 h, and the endpoint was 12 h. At the endpoint, lung tissue was taken and placed in 10 mL of sterile physiological saline, the tissue was homogenized by a homogenizer, and the homogenate was diluted in a gradient and spotted in a plate, with two replicates for each mouse. The bacterial load in the lung tissue of the mice was counted, and the experiment was summarized as follows (see Table 7): […]
# [2] = test system: Klebsiella pneumoniae ATCC BAA-1705; experiment: Mouse thigh muscle infection model, bacterial load; assay type: in vivo, CD-1 female mice; conditions: endpoint 12 h
# Description: as §1, §2
# On day −1, the strain Klebsiella pneumoniae ATCC BAA-1705 was resuscitated on an MHA plate. Resuscitated colonies were picked and dissolved in sterile physiological saline to prepare a bacterial solution with a concentration of 5.6E+07 CFU/mL for thigh muscle infection in mice. The initial time of infection was denoted as 0 h, and 100 μL of the bacterial solution was injected into each mouse at the thigh muscle at 0 h, that is, the inoculation amount was 5.6E+06 CFU/mouse. 2 h after infection, dosing was performed according to the experimental scheme. The specific experimental scheme was as follows (see Table 4): • (1) 2 h after infection: for the 1st cage of mice, at the endpoint, thigh muscle tissue was taken and placed in 10 mL of sterile physiological saline, the tissue was homogenized by a homogenizer, and the homogenate was diluted in a gradient and spotted in a plate, with two replicates for each mouse. • (2) 2 h after infection: the 2nd to 12th cages were respectively treated at 10 mL/kg by volume according to the body weight of the mice, the 2nd cage of mice were given a vehicle by intravenous injection every 2 h, and the endpoint was 12 h; the 3rd cage of mice were given 100 mg/kg of meropenem by intravenous injection every 2 h, and the endpoint was 12 h; the 4th cage of mice were given 100 mg/kg of meropenem and 20 mg/kg of QPX7728 by intravenous injection every 2 h, and the endpoint was 12 h; the 5th cage of mice were given 100 mg/kg of meropenem and 100 mg/kg of compound 15 by intravenous injection every 2 h, and the endpoint was 12 h; the 6th cage of mice were given 100 mg/kg of meropenem and 20 mg/kg of compound 15 by intravenous injection every 2 h, and the endpoint was 12 h; the 7th cage of mice were given 100 mg/kg of meropenem and 4 mg/kg of compound 15 by intravenous injection every 2 h, and the endpoint was 12 h; the 8th cage of mice were given 100 mg/kg of cefepime by intravenous injection every 2 h, and the endpoint was 12 h; the 9th cage of mice were given 100 mg/kg of cefepime and 20 mg/kg of QPX7728 by intravenous injection every 2 h, and the endpoint was 12 h; the 10th cage of mice were given 100 mg/kg of cefepime and 100 mg/kg of compound 15 by intravenous injection every 2 h, and the endpoint was 12 h; the 11th cage of mice were given 100 mg/kg of cefepime and 20 mg/kg of compound 15 by intravenous injection every 2 h, and the endpoint was 12 h; and the 12th cage of mice were given 100 mg/kg of cefepime and 4 mg/kg of compound 15 by intravenous injection every 2 h, and the endpoint was 12 h. At the endpoint of 12 h, thigh muscle tissue was taken and placed in 10 mL of sterile physiological saline, the tissue was homogenized by a homogenizer, and the homogenate was diluted in a gradient and spotted in a plate, with two replicates for each mouse. The bacterial load in the thigh muscle tissue of the mice was counted, and the experiment was summarized as follows (see Table 5): […]
# [3] = cefepime 100 mg/kg + inhibitor 20 mg/kg i.v. q2h
# [4] = meropenem 100 mg/kg + inhibitor 20 mg/kg i.v. q2h
compound,measurement,setting,value
"O=C(O)c1c(F)ccc2c1OB(O)[C@@H]1C[C@H]21 [QPX7728, reference compound]",Average CFU in mice (lung tissue),[1]; [3],2.68E+06 CFU/mouse
same,Average CFU in mice (lung tissue),[1]; [4],8.42E+06 CFU/mouse
same,Average CFU in mice (thigh muscle tissue),[2]; [3],1.50E+07 CFU/mouse
same,Average CFU in mice (thigh muscle tissue),[2]; [4],1.02E+07 CFU/mouse
